Laboratory results as given in the NIST ThermoML archive (doi:10.1016/j.jct.2014.03.021).

Test: xn = mol fraction of the nth substance listed
Settings: 101 kPa, Liquid; for speed of sound: Frequency=3 MHz, Sing-around technique in a fixed-path interferometer; for mass density: Vibrating tube method; for electrical conductivity: Alternating current cell with electrodes

C[C@H](O)C(=O)[O-].C[N+](C)(C)CCO + O
Settings | electrical conductivity [S/m] | mass density [kg/m3] | speed of sound [m/s]
308.15 K, x1 = 0.0258 | – | 1030.91 | –
308.15 K, x1 = 0.0511 | – | 1055.74 | –
308.15 K, x1 = 0.074 | – | 1074.99 | –
308.15 K, x1 = 0.1027 | – | 1089.55 | –
308.15 K, x1 = 0.1443 | – | 1102.31 | –
308.15 K, x1 = 0.1965 | – | 1113.02 | –
308.15 K, x1 = 0.2705 | – | 1122.29 | –
308.15 K, x1 = 0.2957 | – | 1124.2 | –
308.15 K, x1 = 0.3897 | – | 1129.04 | –
308.15 K, x1 = 0.5347 | – | 1131.34 | –
308.15 K, x1 = 0.6044 | – | 1132.01 | –
308.15 K, x1 = 0.6931 | – | 1131.57 | 1899
308.15 K, x1 = 0.7565 | – | 1132.02 | 1896.1
308.15 K, x1 = 0.8375 | – | 1132.67 | 1895.2
308.15 K, x1 = 0.8996 | – | 1133.39 | 1894
308.15 K, x1 = 0.94 | – | 1133.76 | 1890.3
308.15 K, x1 = 0.9611 | – | 1133.93 | 1886.6
313.15 K, x1 = 0.0258 | 4.38 | 1028.62 | 1673.4
313.15 K, x1 = 0.0511 | 4.67 | 1053.12 | 1772.3
313.15 K, x1 = 0.074 | 4.09 | 1072.09 | 1843.8
313.15 K, x1 = 0.1027 | 3.31 | 1086.48 | 1890.1
313.15 K, x1 = 0.1443 | – | 1099.08 | 1927.4
313.15 K, x1 = 0.1965 | 1.65 | 1109.75 | 1935.7
313.15 K, x1 = 0.2705 | – | 1118.95 | 1932.5
313.15 K, x1 = 0.2957 | 0.735 | 1120.95 | 1931.4
313.15 K, x1 = 0.3897 | – | 1125.94 | 1919.3
313.15 K, x1 = 0.5347 | 0.234 | 1128.21 | 1901
313.15 K, x1 = 0.6044 | 0.169 | 1128.91 | 1896.5
313.15 K, x1 = 0.6931 | 0.103 | 1128.31 | 1885.6
313.15 K, x1 = 0.7565 | – | 1128.77 | 1883
313.15 K, x1 = 0.798 | 0.069 | – | –
313.15 K, x1 = 0.8375 | – | 1129.44 | 1882.1
313.15 K, x1 = 0.8996 | 0.071 | 1130.23 | 1880.5
313.15 K, x1 = 0.94 | – | 1130.63 | 1876.1
313.15 K, x1 = 0.9611 | – | 1130.81 | 1872
318.15 K, x1 = 0.0258 | 4.99 | 1026.22 | 1674
318.15 K, x1 = 0.0511 | 5.07 | 1050.42 | 1768.1
318.15 K, x1 = 0.074 | 4.55 | 1069.15 | 1835.9
318.15 K, x1 = 0.1027 | 3.83 | 1083.38 | 1879.8
318.15 K, x1 = 0.1443 | – | 1095.34 | 1914.8
318.15 K, x1 = 0.1965 | 1.92 | 1106.48 | 1922.8
318.15 K, x1 = 0.2705 | – | 1115.26 | 1919.8
318.15 K, x1 = 0.2957 | 0.898 | 1117.03 | 1918.3
318.15 K, x1 = 0.3897 | – | 1122.53 | 1906.8
318.15 K, x1 = 0.5347 | 0.262 | 1125.08 | 1888
318.15 K, x1 = 0.6044 | 0.197 | 1125.81 | 1883.5
318.15 K, x1 = 0.6931 | 0.118 | 1125 | 1872.5
318.15 K, x1 = 0.7565 | – | 1125.55 | 1870.1
318.15 K, x1 = 0.798 | 0.103 | – | –
318.15 K, x1 = 0.8375 | – | 1126.28 | 1869.1
318.15 K, x1 = 0.8996 | 0.084 | 1127.07 | 1867.3
318.15 K, x1 = 0.94 | – | 1127.56 | 1862.4
318.15 K, x1 = 0.9611 | – | 1127.75 | 1858
323.15 K, x1 = 0.0258 | 5.23 | 1023.68 | 1673.8
323.15 K, x1 = 0.0511 | 5.47 | 1047.63 | 1763.2
323.15 K, x1 = 0.074 | 5.09 | 1066.16 | 1827.6
323.15 K, x1 = 0.1027 | 4.26 | 1080.24 | 1869.2
323.15 K, x1 = 0.1443 | – | 1092.47 | 1907
323.15 K, x1 = 0.1965 | 2.18 | 1103.2 | 1910
323.15 K, x1 = 0.2705 | – | 1112.52 | 1911.6
323.15 K, x1 = 0.2957 | 1.01 | 1114.46 | 1905.2
323.15 K, x1 = 0.3897 | – | 1119.8 | 1898.7
323.15 K, x1 = 0.5347 | 0.318 | 1121.95 | 1875
323.15 K, x1 = 0.6044 | 0.235 | 1122.71 | 1870.6
323.15 K, x1 = 0.6931 | 0.151 | 1121.7 | 1859.6
323.15 K, x1 = 0.7565 | – | 1122.21 | 1863
323.15 K, x1 = 0.798 | 0.134 | – | –
323.15 K, x1 = 0.8375 | – | 1123.02 | 1861.8
323.15 K, x1 = 0.8996 | 0.144 | 1123.98 | 1854.4
323.15 K, x1 = 0.94 | – | 1124.48 | 1854.3
323.15 K, x1 = 0.9611 | – | 1124.69 | 1849.7
